Read-outs that look alike come from different tables or passages of the source. Marks after values point to notes of the source that are not given here.
Legend:
Format in all cases: biochemical
[1] = target: T1, human recombinant core 2 β1,6-GlcNAc-transferase (C2GnT1) (Homo sapiens, UniProt Q02742); assay: C2GnT1 glycosyltransferase assay; settings: for C2GnT1 activity (%): acceptor substrate 0.5 mM, 0.5 mM Galβ1–3GalNAcα-pnp set to 100%
T1 sequence (Q02742 33-428 limits assumed): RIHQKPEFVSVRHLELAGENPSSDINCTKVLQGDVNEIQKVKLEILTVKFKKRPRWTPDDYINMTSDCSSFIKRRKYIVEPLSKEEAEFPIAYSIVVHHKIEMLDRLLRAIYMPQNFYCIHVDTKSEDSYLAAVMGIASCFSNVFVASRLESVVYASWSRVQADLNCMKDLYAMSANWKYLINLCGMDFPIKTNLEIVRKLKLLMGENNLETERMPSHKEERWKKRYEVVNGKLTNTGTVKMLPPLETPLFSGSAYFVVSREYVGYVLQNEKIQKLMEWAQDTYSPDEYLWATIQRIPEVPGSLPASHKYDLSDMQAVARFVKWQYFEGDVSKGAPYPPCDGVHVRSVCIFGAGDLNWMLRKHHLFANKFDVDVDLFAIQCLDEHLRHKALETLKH

[2] = target: T2, human recombinant core 2/4 β1,6-GlcNAc-transferase (C2GnT2) (Homo sapiens, UniProt O95395); settings: for C2GnT2 activity (%): acceptor substrate 0.5 mM, 0.5 mM Galβ1–3GalNAcα-pnp set to 100%
T2 sequence (O95395 27-438): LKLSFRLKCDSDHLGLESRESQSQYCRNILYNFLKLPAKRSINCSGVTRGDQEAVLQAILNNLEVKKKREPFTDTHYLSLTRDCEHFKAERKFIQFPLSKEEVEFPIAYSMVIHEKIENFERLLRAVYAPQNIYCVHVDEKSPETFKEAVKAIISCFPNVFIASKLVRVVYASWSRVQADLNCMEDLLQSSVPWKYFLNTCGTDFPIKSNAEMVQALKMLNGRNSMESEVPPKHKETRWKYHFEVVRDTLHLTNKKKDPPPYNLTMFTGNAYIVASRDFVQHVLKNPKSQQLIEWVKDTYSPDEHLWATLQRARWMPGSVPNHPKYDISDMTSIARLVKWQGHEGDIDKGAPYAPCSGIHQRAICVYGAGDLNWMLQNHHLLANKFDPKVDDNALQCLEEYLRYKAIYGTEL

[3] = target: human recombinant core 1 β1,3-Gal-transferase (C1GalT) (Homo sapiens, UniProt Q9NS00); assay: C1GalT glycosyltransferase assay; settings: acceptor substrate 0.5 mM; 0.5 mM GalNAcα-Bn set to 100%
Chain of human recombinant core 1 β1,3-Gal-transferase (C1GalT) (Q9NS00 30-363 limits assumed): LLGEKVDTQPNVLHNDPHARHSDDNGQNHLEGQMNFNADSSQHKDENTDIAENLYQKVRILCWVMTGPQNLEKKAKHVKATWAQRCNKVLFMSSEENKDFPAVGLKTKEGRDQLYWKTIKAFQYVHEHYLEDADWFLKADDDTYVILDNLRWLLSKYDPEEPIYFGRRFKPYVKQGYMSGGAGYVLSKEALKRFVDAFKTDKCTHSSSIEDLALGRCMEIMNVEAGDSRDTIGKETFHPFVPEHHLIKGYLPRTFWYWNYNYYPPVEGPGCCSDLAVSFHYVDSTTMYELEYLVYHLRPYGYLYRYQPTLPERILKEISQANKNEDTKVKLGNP

Row | C2GnT1 activity (%) [1] | C2GnT2 activity (%) [2] | Compound | also measured
1 | 90% | 52% | CC(=O)N[C@H]1[C@@H](OCc2ccccc2)O[C@H](CO)[C@H](O)[C@@H]1O[C@@H]1O[C@H](CO)[C@H](O)C[C@H]1O [3-Deoxy-Galβ1–3GalNAcα-Bn] | 
2 | 104% | 41% | CO[C@H]1[C@@H](O)[C@@H](CO)O[C@@H](O[C@H]2[C@@H](O)[C@@H](CO)O[C@H](OCc3ccccc3)[C@@H]2NC(C)=O)[C@@H]1O [3-O-Methyl-Galβ1–3GalNAcα-Bn] | 
3 | <1% | <1% | CC(=O)N[C@H]1[C@@H](OCc2ccccc2)O[C@H](CO)[C@H](O)[C@@H]1O[C@@H]1O[C@H](CO)C[C@H](O)[C@H]1O [4-Deoxy-Galβ1–3GalNAcα-Bn] | 
4 | <1% | <1% | CC(=O)N[C@H]1[C@@H](OCc2ccccc2)O[C@H](CO)[C@H](O)[C@@H]1O[C@@H]1O[C@H](CO)[C@H](F)[C@H](O)[C@H]1O [4-F-4-Deoxy-Galβ1–3GalNAcα-Bn] | 
5 | <1% | <1% | CC(=O)N[C@H]1[C@@H](OCc2ccccc2)O[C@H](CO)[C@H](O)[C@@H]1O[C@@H]1O[C@H](C)[C@H](O)[C@H](O)[C@H]1O [6-Deoxy-Galβ1–3GalNAcαBn] | 
6 | <1% | <1% | CO[C@H]1O[C@H](CO)[C@H](O)[C@H](O[C@@H]2O[C@H](CO)[C@H](O)[C@H](O)[C@H]2O[C@@H]2O[C@@H](C)[C@@H](O)[C@@H](O)[C@@H]2O)[C@H]1NC(C)=O [Fucα1–2Galβ1–3GalNAcα-methyl] | 
7 | <1% | <1% | CC(=O)N[C@H]1[C@@H](OCc2ccccc2)O[C@H](CO)C[C@@H]1O[C@@H]1O[C@H](CO)[C@H](O)[C@H](O)[C@H]1O [Galβ1–3(4-deoxy)GalNAcα-Bn] | 
8 | <1% | <1% | COC[C@H]1O[C@H](OCc2ccccc2)[C@H](NC(C)=O)[C@@H](O[C@@H]2O[C@H](CO)[C@H](O)[C@H](O)[C@H]2O)[C@H]1O [Galβ1–3(6-O-methyl)GalNAcα-Bn] | 
9 | 64% | 35% | CC(=O)N[C@H]1[C@@H](OCc2ccccc2)O[C@H](CO)[C@H](O)[C@@H]1O[C@@H]1O[C@H](CO)[C@H](O)[C@H](O)[C@H]1O [Galβ1–3GalNAcα-Bn] | 
10 | 79% | 100% | CC(=O)N[C@H]1[C@@H](Oc2ccccc2[N+](=O)[O-])O[C@H](CO)[C@H](O)[C@@H]1O[C@@H]1O[C@H](CO)[C@H](O)[C@H](O)[C@H]1O [Galβ1–3GalNAcα-onp] | 
11 | 135% | 86% | C=C(C)C1CC=C(CO[C@H]2O[C@H](CO)[C@H](O)[C@H](O[C@@H]3O[C@H](CO)[C@H](O)[C@H](O)[C@H]3O)[C@H]2NC(C)=O)CC1 (stereo partly shown) [Galβ1–3GalNAcα-perillyl] | 
12 | <1% |  | CC(=O)N[C@H]1[C@@H](OCc2ccccc2)O[C@H](CO)[C@@H](O)[C@@H]1O[C@@H]1O[C@H](CO)[C@H](O)[C@H](O)[C@H]1O [Galβ1–3GlcNAcα-Bn] | 
13 | <1% | <1% | CC(=O)N[C@H]1[C@@H](OCc2ccccc2)O[C@H](CO)[C@H](O)[C@@H]1O[C@@H]1O[C@H](CO)[C@H](O)[C@H](O[C@@H]2O[C@H](CO)[C@@H](O)[C@H](O[C@@H]3O[C@H](CO)[C@H](O)[C@H](O)[C@H]3O)[C@H]2NC(C)=O)[C@H]1O [Galβ1–3GlcNAcβ1–3Galβ1–3GalNAcα-Bn] | 
14 | <1% | <1% | CO[C@@H]1O[C@H](CO)[C@H](O)[C@H](O[C@@H]2O[C@H](CO)[C@@H](O)[C@H](O)[C@H]2NC(C)=O)[C@H]1O [GlcNAcβ1–3-Galβ-methyl] | 
15 | <1% | 27% | C=CCO[C@H]1O[C@H](CO)[C@H](O)[C@H](O[C@@H]2O[C@H](CO)[C@@H](O)[C@H](O)[C@H]2NC(C)=O)[C@H]1NC(C)=O [GlcNAcβ1–3GalNAcα-allyl] | 
16 | <1% | <1% | CC(=O)N[C@H]1[C@H](OC[C@H]2O[C@H](OCc3ccccc3)[C@H](NC(C)=O)[C@@H](O[C@@H]3O[C@H](CO)[C@@H](O)[C@H](O)[C@H]3NC(C)=O)[C@H]2O)O[C@H](CO)[C@@H](O)[C@@H]1O [GlcNAcβ1–6(GlcNAcβ1–3)GalNAcα-Bn] | 
17 |  |  | CC(=O)N[C@H]1[C@@H](OP(=O)(O)OP(=O)(O)OC[C@H]2O[C@@H](n3ccc(=O)[nH]c3=O)[C@H](O)[C@@H]2O)O[C@H](CO)[C@@H](O)[C@@H]1O [UDP-GlcNAc, reference compound] | Vmax ([1]; C2GnT1, donor substrate, using 5 mM Galβ1–3GalNAcα-pnp): 0.1 µmol/h/mg; Vmax ([2]; C2GnT2, donor substrate, using 5 mM Galβ1–3GalNAcα-pnp): 1.7 µmol/h/mg; Vmax ([2]; C2GnT2, donor substrate, using 5 mM GlcNAcβ1–3GalNAcα-pnp): 0.8 µmol/h/mg
18 | 92% | <1% | (Galβ1–3GalNAcα)TAGV | 
19 | 9% | <1% | AHGVT-(Galβ1–3GalNAcα)SAPESRPAPGSTAPNA | 
20 | 11% | <1% | AHGVT-(Galβ1–3GalNAcα)SAPETRPAPGSTAPTA | 

Row | C2GnT1 activity (%) [1] | C2GnT2 activity (%) [2] | Compound | also measured
21 | 12% | 8% | Ac-G-(Galβ1–3GalNAcα)TTTPIST-NH2 | 
22 | 13% | 5% | Ac-GT-(Galβ1–3GalNAcα)TTPIST-NH2 | 
23 | 14% | <1% | Ac-GTT-(Galβ1–3GalNAcα)TPIST-NH2 | 
24 | 7% | <1% | Ac-P-(Galβ1–3GalNAcα)TTTGIST-NH2 | 
25 | 72% | 32% | Ac-P-(Galβ1–3GalNAcβ)TTTPIST-NH2 | 
26 | 49% | 6% | Ac-PT-(Galβ1–3GalNAcα)TTGIST-NH2 | 
27 | 43% | 15% | Ac-PT-(Galβ1–3GalNAcβ)TTPIST-NH2 | 
28 | 36% | <1% | Ac-PTT-(Galβ1–3GalNAcα)TGIST-NH2 | 
29 |  |  | T-(GalNAcα)TTVTPTPTG | C1GalT activity (%) [3]: 231%
30 | 11% | <1% | T-(Galβ1–3GalNAcα)TTVTPTPTG | 
31 | <1% | <1% | T-(GlcNAcβ1–3GalNAcα)TTVTPTPTG | 
32 |  |  | TE-(GalNAcα)TTSHSTPG | C1GalT activity (%) [3]: 373%
33 | <1% | <1% | TE-(GlcNAcβ1–3GalNAcα)TTSHSTPG | 
34 |  |  | TET-(GalNAcα)TSHSTPG | C1GalT activity (%) [3]: 210%
35 | 27% | <1% | TET-(Galβ1–3GalNAcα)TSHSTPG | 
36 | <1% | <1% | TET-(GlcNAcβ1–3GalNAcα)TSHSTPG | 
37 | 70% | 7% | TETTSHS-(Galβ1–3GalNAcα)TPG | 
38 | <1% | <1% | TETTSHS-(GlcNAcβ1–3GalNAcα)TPG | 
39 | 12% | <1% | TT-(Galβ1–3GalNAcα)TVTP-(Galβ1–3GalNAcα)TPTG | 
40 | 13% | <1% | TT-(Galβ1–3GalNAcα)TVTPTPTG | 

Row | Compound | C2GnT1 activity (%) [1] | C2GnT2 activity (%) [2] | also measured
41 | CC(=O)N[C@H]1[C@@H](Oc2ccc([N+](=O)[O-])cc2)O[C@H](CO)[C@H](O)[C@@H]1O[C@@H]1O[C@H](CO)[C@H](O)[C@H](O)[C@H]1O [Galβ1–3GalNAcα-pnp, reference compound] | 100 ^a % | 100 ^b % | Vmax ([2]; C2GnT2, acceptor substrate): 1.5 µmol/h/mg
42 | CC(=O)N[C@H]1[C@H](O[C@H]2[C@@H](O)[C@@H](CO)O[C@H](Oc3ccc([N+](=O)[O-])cc3)[C@@H]2NC(C)=O)O[C@H](CO)[C@@H](O)[C@@H]1O [GlcNAcβ1–3GalNAcα-pnp, reference compound] | <1% | 32% | Vmax ([2]; C2GnT2, acceptor substrate): 1.0 µmol/h/mg
43 | AHGVT-(Galβ1–3GalNAcα)SAPDTRPAPGS- (Galβ1–3GalNAcα)SAPPA | 9% | <1% | 
44 | AHGVT-(Galβ1–3GalNAcα)SAPDTRPAPGSTAP- (Galβ1–3GalNAcα)TA | 18% | <1% | 
45 | AHGVT-(Galβ1–3GalNAcα)SAPDTRPAPGSTAPNA | 9% | <1% | 
46 | AHGVT-(Galβ1–3GalNAcα)SAPDTRPAPGSTAPTA | 9% | <1% | 
